Reference: patent publication US12582720B2, “Compound for preventing or treating lipid metabolism-related diseases” (Fudan University, priority 2020, dated 2026)
Where two headings read alike, the source gives them in different places.

Tests used:
[1] = system: autophagosome-lipid droplet colocalization in MEF cells; assay: Colocalization of autophagosome and lipid droplets in mCherry-LC3B transfected MEF cells; type: cell-based, mouse; settings: 5 μM, 3 h, compared to DMSO control
Description: (1) In MEF cells, mCherry-LC3B was expressed by cDNA plasmid transfection.
(2) OA was added to the culture medium 30 hours after transfection to induce lipid droplets.
(3) Compounds were added to treat cells 6 hours after induction.
(4) 3 hours after compounds addition, cells were fixed and BODIPY stained.
(5) The coverslips laid in the multi-well plates were removed, and imaged with the Zeiss 880 confocal microscope after mounted to observe the aggregation of LC3 puncta around the lipid droplets.
In MEF cells, mCherry-LC3B was expressed by cDNA plasmid transfection. At 30th hour of overexpression, OA was added into cells for lipid droplet induction. 6 hours later, the compound was added for 3 hours' treatment, and then cells were subjected to immunostaining. […] Lipid droplets (green) were stained with BODIPY stain, and nucleus were indicated with DAPI stain. […] In FIG. 24, the colocalized autophagosome-lipid droplet was marked with circles.

[2] = system: lipid droplets in 3T3-L1 fat precursor cell differentiated fat cells; assay: Lipid droplets in 3T3-L1 fat precursor cell differentiated fat cells; type: cell-based, mouse; settings: 3T3-L1 differentiated fat cells, 5 μM, 24 h
[3] = system: lipid droplets in wild type MEF cells; assay: Reduction of OA-induced lipid droplets in wild type MEF cells (BODIPY 493/503 staining); type: cell-based, mouse; settings: MEF, unconjugated compound 5 μM
Description: (5) OA-BSA stock solution was prepared into OA-BSA working solution (50× final concentration, 200 μM), and 40 μl of OA-BSA working solution was added to each well to induce lipid droplets. For the non-OA induction group, 40 μl of 10% BSA solution was added to the control well, and the amount of BSA was the same as that of the experimental group.
Compounds were formulated into DMSO stock solutions. Stock compounds were diluted with DMSO into the indicated concentrations of working solutions prior to use in the treatment of cells. After induction of the lipid droplets with OA for the indicated time, the test compounds were added to the cells respectively. Control wells were replaced with the equal volume of DMSO. Unless otherwise stated, the compounds were diluted into 10× solutions using the culture medium and added to the culture medium for 24 hours of incubation. Cells were treated with compounds in a 37° C. incubator with 5% CO2.
(3) The original medium in the multi-well plates was removed, washed and the cells was fixed, 1 ml of the BODIPY solution prepared in (1) was added to each well, and stained for 15 minutes. The staining solution was aspirated and washed with 1×PBS.
(5) The coverslips laid in the multi-well plates were removed, and imaged with the Zeiss 880 confocal microscope after mounted, and analyzed the size and number of lipid droplets with ImageJ.
Wild type MEF cells were cultured in a DMEM culture medium containing 10% FBS. Cells were plated according to the method as described above (12 well plate was plated with aseptic treated slides). When cells grew to a confluence of 60-70%, lipid droplets were induced with OA for 30 h according to the method as described above.
At the time point of 6th hour after initiation of induction, the cells were treated (treated for 24 hours) with Compound 1A or Compound 2A (compound concentrations were 50 μM, 15.8 μM, 5 μM, 1.58 μM, 0.5 μM, 0.158 μM) according to the method as described above.

[4] = system: lipid droplets in human normal liver cell line QSG7701; assay: Endogenous lipid droplets in human normal liver cell line QSG7701; type: cell-based; settings: QSG7701, no induction, 5 μM, 24 h
Description: 10% FBS+90% RPMI 1640 culture medium was used for cultivation, cell incubator culture condition of 37° C. and 5% CO2 was used. Cells were plated as 50 thousands/well (12 well plate was plated with aseptic treated slides). When cells grew to a confluence of 80-90%, the compound (Compound 1A or Compound 2A, at a concentration of 5 μM) was added for treatment, and LC3 binding Compound A1, A5, lipid droplet probe Sudan IV as well as DMSO acted as a control. […]. In the compounds of present disclosure, LC3 binding moiety was covalently linked with lipid droplet binding moiety, and thus could achieve the effect of reducing liver cell endogenous lipid droplet.

[5] = system: lipid droplets in SH-SY5Y cells; assay: Reduction of OA-induced lipid droplets in SH-SY5Y cells; type: cell-based, human; settings: unconjugated compound 5 μM
Text: The reduction of lipid droplets in SH-SY5Y cells by Compound 1A and Compound 2A was detected by a method that was similar to Example 2, and the result was shown in FIG. 18.
The effects of unconjugated LC3 binding Compound A1, A5 and unconjugated lipid droplet probe ORBB […] respectively on lipid droplets in SH-SY5Y cells (FIG. 20A) and MEF cells (FIG. 20B) were detected by a method similar to Example 2.

[6] = target: LC3B (Homo sapiens, UniProt Q9GZQ8); assay: MST detection of affinity activity with LC3B; type: binding; set-up: His8 (with TEV site) (N); made in house; host or cells: Escherichia coli BL21(DE3)pLysS
Description: The recombinant GST-LC3B proteins were prepared and purified, dialyzed into 1×PBS, and then labelled with the red fluorophore with the protein labeling kit RED-NHS (Nanotemper, cat. no. L001).
The MST experiments were performed using the Monolith NT.115 instrument (NanoTemper Technologies). The reaction buffer contains 20 mM HEPES, pH 7.4, 150 mM NaCl, and the protein concentration was 500 nM. The MST data were collected under 40% infrared laser power and 20% light-emitting diode power. The data were analyzed by Nanotemper software.

[7] = system: db/db mice; assay: Effect of the compound on db/db mouse; type: in vivo
Text: Experimental animals: nineteen-week-old db/db male mice (C57BL/6J-Lepr^db/Lepr^db) were obtained from Shanghai Model Organisms Co., Ltd., and acclimatized for at least 1 week before experiments. The mice had ad libitum access to standard chow and water.
Normal control: The C57BL/6 male mice fed on standard irradiated chow diet (Shuyishuer Inc. cat. no. D12450J) from Changzhou Shuyishuer Biotechnology Co., Ltd. (Shuyishuer Inc.) were used as the normal control.
Mice were randomly divided into 7 groups, wherein 8 mice in each group, and the mice in each group were subjected to intraperitoneal injection to administer: (1) only vehicle (no DMSO) group: 0% DMSO+39% PEG300 (Selleck, cat. no. S6704)+5% Tween-80 (Selleck, cat. no. S6702)+56% distilled water, (2) DMSO group: 1% DMSO+39% PEG300+5% Tween-80+55% H2O (DMSO vehicle), (3) C3 group: Compound 3A was in DMSO vehicle, (4) C4 group: Compound 4A in DMSO vehicle, (5) SIII group: Sudan III DMSO vehicle, (6) GW5074 group: Compound A1 in DMSO vehicle, (7) DP group: Compound A5 in DMSO vehicle. For groups (3)-(7), the compound (30 mg/kg, administration volume 150 μL) was administered through intraperitoneally injection for consecutive 2 weeks, and once a day. The food and water intake were measured with an analytical electronic balance.
Bodyweight was weighed every day.
If time permitted, tail vein blood (30-50 μL) was collected every 1-3 days.
24 hours after the time point of the last injection, end point maxillary surface blood sampling was performed on each mouse. All mice were Euthanized by cervical dislocation, and then tissue sample (e.g., liver samples) were obtained and stored in Eppendorf tubes at −80° C. for assay.
12 days after initiation of administration, each mouse was scanned by a minispec nuclear magnetic resonance (NMR) instrument (Bruker LF50 II “Minispec” body composition analyzer, Bruker Optics) that was designed for experimental animals, and based on the measurement of solid and liquid parts of the samples, the body fat and lean body weight were determined by this device.
Serum: Tail vein blood samples (30-50 μL) were left to coagulate in […] blood collection tubes (Jiangsu Kangjian Medical Products Co., Ltd., model KJ002) at room temperature without interference, and then centrifuged at 2,000×g for 10 minutes at 4° C. to remove the clot. Supernatant was collected to obtain the serum.
Liver: Liver samples were obtained as described in (2). 100 mg of liver tissue was homogenized in 0.9 mL of absolute alcohol under ice-cold conditions, and then centrifuged (2,500 r.p.m/min, 10 min). Supernatant was collected, and then stored at −80° C.
The kits were used according to the instruction from manufacturer (TAG: TG kit, cat. no. A110-1-1; TC: T-CHO kit, cat. no. A111-1. FFA: NEFA kit, cat. No. A042-2-1; they were all from Nanjing Jiancheng Bioengineering Institute). TAG, TC and FFA levels in serum and liver samples were determined.
According to the lipidomic method as described above, the contents of liver total lipid, glycerolipid, sterol lipid, neutral sphingolipid and polar lipid were analyzed. The log 2-fold change (log2 FC) and statistical significance (p-value) relative to the DMSO group were calculated.

[8] = MST, read-out: Kd, equilibrium dissociation constant between the LC3 binding compound and LC3B

Cc1ccccc1/N=N/c1ccc(/N=N/c2c(O)ccc3ccccc23)c(C)c1 [Sudan IV, reference compound]
ratio of colocalization of red and green aggregation point (autophagosome-lipid droplet) [1]: No such effect
amount/size of lipid droplets [2]: no significant effect
lipid droplets (number and size) [3]: did not significantly decrease or become smaller
endogenous lipid droplets (amount) [4]: no significant effect
lipid droplets (number and size) [5]: did not significantly decrease or become smaller
interaction with LC3B ([6]; MST): No interaction

O=C(O)c1cc2ccc(O)cc2oc1=O [Compound A4]
Kd [6, 8]: 3 µM

CC(C)(C)c1cc(NC(=O)Nc2ccc(-c3cn4c(n3)sc3cc(OCCN5CCOCC5)ccc34)cc2)no1 [Compound A12]
Kd [6, 8]: 21.3 ± 1.69 µM

COCC(=O)NC/C=C/c1ccc2ncnc(Nc3ccc(Oc4ccc(C)cc4)c(C)c3)c2c1 [Compound A11]
Kd [6, 8]: 2.78 ± 0.577 µM

Cc1csc(-c2nnc(Nc3ccc(Oc4ncccc4-c4ccnc(N)n4)cc3)c3ccccc23)c1 [Compound A13]
Kd [6, 8]: 5.19 ± 0.282 µM

Oc1ccc2ccccc2c1/N=N/c1ccc(/N=N/c2ccccc2)cc1 [Sudan III, reference compound]
TAG in liver ([7]; lipidomics): not reduced
other major neutral lipids, cholesteryl ester (ChE) and diglyceride (DG) in liver ([7]; lipidomics): not reduced
amount/size of lipid droplets [2]: no significant effect
interaction with LC3B ([6]; MST): No interaction

Nc1ncnc2c1c(-c1cccc(OCc3ccccc3)c1)cn2C1CC(CN2CCCC2)C1 (centres unmarked) [Compound A10]
Kd [6, 8]: 3.98 ± 0.537 µM

COc1ccc(-c2cc(=O)oc3c(C)c(O)c(CN(C)C)cc23)cc1 [Compound A7]
Kd [6, 8]: 0.672 µM

Cc1ccc(C(=O)N(CCCN)[C@@H](c2nc3cc(Cl)ccc3c(=O)n2Cc2ccccc2)C(C)C)cc1 [Compound A8, ispinesib]
Kd [6]: 0.462 ± 0.11 µM

OCCCCCCCCCCBr [Linker, 10-bromo-1-decanol, reference compound]
amount/size of lipid droplets [2]: no significant effect

O=c1cc(-c2ccccc2)c2c(O)cc(O)cc2o1 [Compound A5, 5,7-dihydroxy-4-phenyl-2H-coumarin, reference compound]
mice died in the experiment ([7]; 30 mg/kg ip, 8 mice per group): one mouse
amount/size of lipid droplets [2]: no significant effect
lipid droplets (number and size) [3]: did not significantly decrease or become smaller
endogenous lipid droplets (amount) [4]: no significant effect
lipid droplets (number and size) [5]: did not significantly decrease or become smaller
